# Source: PMC10545747, “Development of cyclopeptide inhibitors of cGAS targeting protein-DNA interaction and phase separation” (Nature Communications, 2023)
# Several values for one entry are separate records, joined by “and”; a condition that tells them apart may be missing. Equal entries are not always repeated. Square brackets hold non-standard residues; d marks the D form. Peptide text beside a SMILES is read from it.
# Assays:
# [1] = system: dsDNA-stimulated THP1 cells; experiment: qPCR of IFNB1/CXCL10/IL6 mRNA in THP1 cells stimulated by dsDNA (ISD, HSV60mer); type: cell-based, human; conditions: for IFNB1 mRNA level (Fig. S7c): XQ2B; for Relative mRNA level CXCL10 (Fig. S7d) / Relative mRNA level IFNB1 (Fig. S7d) / Relative mRNA level IL6 (Fig. S7d): ISD +
# [2] = Solubility in water (spectrophotometer at 280nm, turbidity); conditions: water
# Protocol: Supplementary Fig. 7. […] (a) THP1 cells were exposed to the indicated doses of XQ2 or XQ2B for 48h. The cell viability was measured by CCK8 assay. (b) The comparison of solubility of XQ2 and XQ2B. The maximum concentration of XQ2 or XQ2B dissolved in water was measured by a spectrophotometer at 280nm. […]
# Data are representative of three independent experiments with similar results in (e), or three independent experiments in (a -d, f, g) . (Data are presented as mean ± SD, n = 3 independent samples in (a-d, f, g), ns, not significant, **p < 0.01, ***p < 0.001, ****p < 0.0001 using one-way ANOV A with Dunnett’s post hoc test). Source data are provided as a Source Data file.
# L929 cells = experiment: ISD-induced autophagy, LC3-II immunoblotting; type: cell-based, mouse
# Protocol: Total cell lysates were prepared in RIPA lysis buffer (Beyotime Biotechnology) supplemented with 1 mM PMSF and 1× protease inhibitor cocktail (Yeasen), and nuclear protein was extracted by nuclear protein extraction kit (Solarbio) in accordance with the manufacturer’s instructions. The samples were separated by SDS-PAGE and transferred to the PVDF membrane (Millipore). The membranes were incubated with the indicated primary antibodies at 4 °C overnight and then incubated with an HRP-conjugated anti-rabbit IgG antibody (Cell Signaling, Cat# 7074, 1:5000) or anti-mouse IgG antibody (Cell Signaling, Cat# 7076, 1:5000) at room temperature for 1 h. The signal was visualized by using the NcmECL Ultra kit (New Cell & Molecular Biotech) and then was exposed by using MiniChemi (SageCreation).
# (§1) Supplementary Fig. 3. […] (a) L929 cells were pretreated for
# (§2) 4 h with DMSO or the indicated doses of XQ2, followed by stimulation with dsDNA for 4 h, and then cell lysates were
# (§3) (b) Jurkat cells were exposed to the indicated doses of XQ2, and then stimulated with
# (§4) Data are representative of three independent experiments in (a, b). (Data are presented as mean ± SD, n = 3 independent
# (§5) provided as a Source Data file.
# (§6) (1 picture or pasted object on this page, not shown here)
# primary human PBMCs = experiment: qPCR of IFNB1 and IL6 mRNA in ISD-stimulated PBMCs; type: cell-based; parameters: key to IFNB1 mRNA, qPCR, Fig. 2c / IL6 mRNA, qPCR, Fig. 2c / IFNB1 mRNA (Fig. S7f) / IL6 mRNA (Fig. S7f): relative mRNA level, target CT normalized to GAPDH CT
# Protocol: (§7) The indicated cells were stimulated with either ISD (Sangon Biotech), HSV-1 (Provided by Dr. Zhengfan Jiang), HSV60mer (Sangon Biotech), SATE-cddA[70], 2’3’-cGAMP (Invivogen, Cat# tlrl-nacga23-1), ADU-S100 (MedChemExpress, Cat# HY-12885A) or Poly(I:C) (Invivogen, Cat# tlrl-pic) after XQ2 or XQ2B treatment. Total RNA was isolated from indicated cells that incubated with the drugs for indicated time or mice tissues by using NucleoZOL reagent (MACHEREY-NAGEL) according to the manufacturer’s instructions. The quantifications of mRNA levels were carried out by real-time PCR using a PerfectStart® Uni RT&qPCR Kit (TransGen Biotech) on the QuantStudio 5 qPCR machine (Applied Biosystems). Samples were carried out in triplicate and the target CT values were normalized to GAPDH CT values. Primers of qPCR used in this study can be found in Supplementary Table S2.
# HSV-1 in THP1 cells = experiment: HSV-1(UL5) mRNA by qPCR (virus infection of cells); type: cell-based, herpes simplex virus-1; parameters: key to HSV-1(UL5) mRNA, qPCR, Fig. 5d / HSV-1(UL5) mRNA (Fig. S8e): relative mRNA level, target CT normalized to GAPDH CT
# Protocol: as §7
# Jurkat cells = system: Jurkat cells
# Protocol: Cell viability was measured by cell counting kit-8 (TargetMol) according to the manufacturer’s instructions.
# as §1, §2, §3, §4, §5, §6
structure (smiles),measurement,setting,value
CC(C)C[C@@H]1NC(=O)[C@H](CCCNC(=N)N)NC(=O)[C@H](C(C)C)NC(=O)[C@@H]2CCCN2C(=O)[C@@H](Cc2ccccc2)NC(=O)[C@H](CC(C)C)NC(=O)[C@H](CCCNC(=N)N)NC(=O)[C@H]([C@@H](C)O)NC(=O)[C@H](C)NC(=O)[C@@H](Cc2ccccc2)NC1=O [XQ2B] (cyclo([dF]ATRL[dF]PVRL)),IFNB1 mRNA level (Fig. S7c),[1]; HSV60mer,40.2098 and 37.8755 and 37.7329
same,Relative mRNA level CXCL10 (Fig. S7d),[1]; XQ2B 0.63 μM,75.7262 and 111.48 and 109.732
same,Relative mRNA level IFNB1 (Fig. S7d),[1]; XQ2B 0.63 μM,143.341 and 159.417 and 146.307
same,Relative mRNA level IL6 (Fig. S7d),[1]; XQ2B 0.63 μM,4.851 and 5.001 and 4.853
same,Relative mRNA level CXCL10 (Fig. S7d),[1]; XQ2B 1.25 μM,71.0232 and 80.5931 and 82.552
same,Relative mRNA level IFNB1 (Fig. S7d),[1]; XQ2B 1.25 μM,150.862 and 127.331 and 129.696
same,Relative mRNA level IL6 (Fig. S7d),[1]; XQ2B 1.25 μM,5.209 and 4.534 and 5.634
same,Relative mRNA level CXCL10 (Fig. S7d),[1]; XQ2B 2.5 μM,65.3896 and 90.4406 and 75.1347
same,Relative mRNA level IFNB1 (Fig. S7d),[1]; XQ2B 2.5 μM,125.32 and 106.736 and 118.852
same,Relative mRNA level IL6 (Fig. S7d),[1]; XQ2B 2.5 μM,3.096 and 3.258 and 2.284
same,Relative mRNA level CXCL10 (Fig. S7d),[1]; XQ2B 5 μM,49.8503 and 48.6212 and 43.7599
same,Relative mRNA level IFNB1 (Fig. S7d),[1]; XQ2B 5 μM,64.7201 and 61.5772 and 71.2108
same,Relative mRNA level CXCL10 (Fig. S7d),[1]; XQ2B 10 μM,34.1653 and 30.6356 and 36.3338
same,Relative mRNA level IFNB1 (Fig. S7d),[1]; XQ2B 10 μM,33.5888 and 35.227 and 34.4163
same,Relative mRNA level IL6 (Fig. S7d),[1]; XQ2B 10 μM,0.9806 and 0.7505 and 1.24
same,Relative mRNA level CXCL10 (Fig. S7d),[1]; XQ2B 20 μM,10.6053 and 10.5964 and 12.3293
same,Relative mRNA level IFNB1 (Fig. S7d),[1]; XQ2B 20 μM,3.764 and 4.346 and 4.187
same,IFNB1 mRNA level (Fig. S7c),[1]; ISD,15.0362 and 16.705 and 17.0928
same,IFNB1 mRNA level (Fig. S7c),[1]; Mock,1.262 and 0.9081 and 0.8724
same,"dsDNA/ISD-induced IFNB1, CXCL10, IL6 expression",[1]; THP1,comparable cGAS inhibitory effect as that of XQ2
same,"Concentration (solubility, Fig. S7b)",[2],2.89 mg/mL and 2.94 mg/mL
same,solubility,[2],higher solubility compared to XQ2
same,solubility,"[2]; Concentration (solubility, Fig. S7b)",2850 µg/mL
same,"ISD-induced autophagy, LC3-II formation",L929 cells,markedly reduced ISD-induced autophagy and cell death
same,ISD-induced IFNB1 and IL6 expression in PBMCs,primary human PBMCs; 10 μM,significantly inhibit the activation of cGAS induced by ISD
same,IFNB1 mRNA (Fig. S7f),"primary human PBMCs; PBMCs, ISD+XQ2B",841.807 and 913.377 and 771.009
same,IL6 mRNA (Fig. S7f),"primary human PBMCs; PBMCs, ISD+XQ2B",1185.13 and 642.626 and 1199.71
same,"HSV-1 infection of THP1 cells, HSV1(UL5) mRNA",HSV-1 in THP1 cells; 10 μM,facilitated HSV-1 infection
same,HSV-1(UL5) mRNA (Fig. S8e),HSV-1 in THP1 cells; HSV-1(1×104) 24h,2.313 and 2.598 and 2.002
same,HSV-1(UL5) mRNA (Fig. S8e),HSV-1 in THP1 cells; HSV-1(2×104) 24h,4.745 and 4.808 and 4.905
same,ISD-induced cell death,Jurkat cells,markedly reduced ISD-induced autophagy and cell death
